From patent US6671540B1, “Methods and systems for detecting abnormal tissue using spectroscopic techniques” (priority 1990, dated 2003) come the findings set out here.

A value given as a limit tells only on which side of the number the result lay.

The subject of series [1] is hippocampal slice. Nature of the series: Stimulation-evoked afterdischarge activity in hippocampal slice (field recording and intrinsic optical signal). The class given is cell-based, rat. On the procedure:
Sprague-Dawley rats (male and female; 25 to 35 days old) were prepared as described in Aghajanian, A. K. and Rasmussen, K., Synapse 31:331, 1989; and Buckmaster, P. S., Strowbridge, B. W., Schwartzdroin, P. A., J. Neurophysiol. 70:1281, 1993. In most hippocampal slice experiments, simultaneous extracellular field electrode recordings were obtained from CA1 and CA3 areas. For stimulation-evoked afterdischarge (13 slices, 8 animals), the concentration of Mg^2+ in the bathing medium was reduced to 0.9 mM. A bipolar tungsten stimulating electrode was placed on the Schaffer collaterals to evoke synaptically driven field responses in CA1; stimuli consisted to 100 to 300-μs-duration pulses at an intensity of four times population-spike threshold. Afterdischarges were evoked by a 2-s train of such stimuli delivered at 60 Hz. […] In all treatments, perfusion with furosemide-containing medium was begun after a consistent level of bursting had been established.
For imaging of intrinsic optical signals, the tissue was illuminated with a beam of white light (tungsten filament light and lens system; Dedotec USA, Lodi, N.J.) directed through the microscope condenser. The light was controlled and regulated (power supply: Lambda Electronics, Melville, N.Y.) to minimize fluctuations and filtered (695 nm long-pass) so that the slice was transilluminated with long wavelengths (red). Image frames were acquired with a charge-coupled device camera (Dage-MTI) at 30 Hz and were digitized at 8 bits with a spatial resolution of 512 by 480 pixels by means of an Imaging Technology Series 151 imaging system; gains and offsets of the camera-control box and the analog-to-digital board were adjusted to optimize the sensitivity of the system. Imaging hardware was controlled by a 486-PC-compatible computer running software written by D. Hochman and developed with commercially available software tools (Microsoft's C/C++ Compiler and Imaging Technology's ITEX library). To increase signal-to-noise ratio, an averaged image was composed from 16 individual image-frames, integrated over 0.5 s and averaged together. An experimental series typically involved the continuous acquisition of a series of averaged images over a several minute time period; at least 10 of these averaged images were acquired as control images before stimulation. Pseudo-colored images were calculated by subtracting the first control image from subsequently acquired images and assigned a color lookup table to the pixel values. For these images, usually a linear low-pass filter was used to remove high-frequency noise and a linear-histogram stretch was used to map the pixel values over the dynamic range of the system. All operations on these images were linear so that quantitative information was preserved.

In series [2] the test system is low grade CNS tumor (astrocytoma, grade 1). Nature of the series: Intraoperative optical imaging of dye uptake and clearance, low grade human CNS tumor. Conditions: 1 mg/kg iv bolus. The series is classed as in vivo. The text has this:
(§1) The procedure used in Examples 1-4 was as follows. The area of interest was evenly illuminated by a fiber optic light source with the radiation passing through a beam splitter, controlled by a D.C. regulated power supply (Lambda, Inc.) and passed through a 695 nm longpass filter. Images were acquired with a CCD camera (COHU 6500) fitted to the operating microscope with a specially modified cineadaptor. The cortex was stabilized with a glass footplate. Images were acquired at 30 Hz and digitized at 8 bits (512×480 pixels, using an Imaging Technology, Inc. Series 151 system, Woburn, Mass.). Geometrical transformations were applied to images to compensate for small amounts of patient motion (Wohlberg, Digital Imaging Warping, IEEE Computer Society: Los Alamitos, Calif., 1988). […] Raw data (i.e., no digital enhancement) were used for determining the average optical change in specified regions (average size box was 30×30 pixels or 150-250 um^2). For pseudocolor images, a linear low pass filter removed high frequency noise and linear histogram transformations were applied. Noise was defined as the standard deviation of fluctuations it! sequentially acquired control images as 0.003-0.009.
An averaged control image was obtained of the particular cortical surface area of interest. FIG. 1A is a gray-scale image of the area of interest prior to dye administration. […]

Series [3] concerns rat glioma. Conditions: in vivo. From the text:
This example illustrates a series of experiments using a rat glioma model through an intact skull to investigate whether the inventive method and inventive device could function in to image tumor tissue through an intact skull and through intact skin prior to or after surgery. Far red wavelengths of emr are known to penetrate through bone and skin. Imaging of tumor tissue was attempted through the intact skull of the rat. The extent of tumor identified was not as accurate as with the cortex exposed; however, the area lying beneath the skull with tumor tissue was easily identified and localized, and continued to concentrate dye after several minutes. […] One minute after dye injection, the dye had been cleared from the normal brain and the only residual signal remained in tumor tissue and the sagital/traverse sinuses.
FIG. 5A is a gray scale image of the cranial surface of a rat. The sagital suture runs down the center of the image. Tumor cells had been injected into the left side some days earlier so that this animal had developed a glioma on t he left hemisphere of its brain. The right hemisphere was normal. Box 1 lays over the suspect region of brain tumor, and Box 2 lays over normal tissue. FIG. 5B is a difference image one second after indocyanine green dye had been intraveneously injected into the animal. The region containing tumor tissue becomes immediately visible through the intact cranium. […] The concentration of dye in the center of this difference image is dye circulating in the sagital sinus.
The optical changes were determined by the average optical change in a box placed directly over the tumor and over the normal hemisphere. The increase in absorption is a function of the concentration of dye in the tissue at a particular time. The graph labeled “extracranial tumor” is a plot of the dynamics of the absorption changes within box 1 from FIG. 5A. The graph labeled “extracranial: normal” is a plot of the dynamics of the absorption change within box 2 from FIG. 5A.
The following imaging apparatus was employed in Examples 5 and 6. […]

The subject of series [4] is highly malignant CNS tumor (glioblastoma; astrocytoma, grade IV). Nature of the series: Intraoperative optical imaging of dye uptake and clearance, malignant human CNS tumor. The series is classed as in vivo. The following applies: iv injection; 1 minute and 10 minutes after dye injection.
Source text: as §1
This example illustrates optical detection of a highly malignant CNS tumor (glioblastoma; astrocytoma, grade IV). […]

Series [5] concerns rat glioma. The following applies: female, F-344, rat, in vivo. The text has this: The rat glioma model is a standard predictive model and was used to delineate dye uptake, clearance and overall parameters of optical imaging that result in the best images. The rat glioma model consistently produces reproducible tumors for imaging studies in which the tumor is resected under an operating microscope. A disadvantage of this model is the more sarcoma-like appearance of the tumor and a lesser degree of vascularity compared to human gliomas.
Briefly, the rat glioma model uses an ethylnitrosourea-induced F-344 rat tumor line developed from a clonal population of a spinal malignant astrocytoma. […] The glioma cells were maintained in Weymouth's medium supplemented with 10% fetal calf serum. Viable cells ([…]) were trypsinized from a monolayer culture and implanted stereotaxically into the right cerebral hemisphere of 30 syngeneic female rats, each weighing 140-160 g. The stereotaxic coordinates for right frontal lobe implantation were 4.5 mm anterior to the frontal zero plane, 3 mm right from the midline and 6 mm deep. The rats were anesthetized for implantation. The heads were shaved and scalps opened, and a 1 mm burr hole made at the appropriate coordinates. The cells were injected through a 27 gauge needle, the needle left in place for 30 sec post injection and the hole was covered with bone wax. The scalp was sutured and the animals observed for 3-4 hrs until they returned to normal activity and feeding. The animals were used 10-14 days after tumor implantation. In this model, animals begin to show clinical symptoms from the tumor by 16-19 days, such as decreased activity and feeding, hemiparesis and eventually succumb between 19-27 days from mass effects due to tumor expansion.
Fourteen animals underwent the complete study, including imaging before and after resection of the tumor. The animals were anesthetized with 2% isoflurane, and the femoral vein cannulated for administration of the dye. Anesthesia was maintained with a—chloralose (50 mg/kg administered ip) and urethane (160 mg/kg administered ip). The animals were placed in a stereotaxic holder. Imaging studies were then carried out before or after removal of the cranium. The tumor typically occupied the anterior one half to two thirds of the right hemisphere exposure. The compressed brain without any tumor infiltration was defined as the tumor surround to separate it from the normal hemisphere on the contralateral side.
The following imaging apparatus was employed in Examples 5 and 6. Light was from a tungsten-halogen bulb regulated by a D.C. power supply, passed through a longpass filter (690 nm), and through a right angled prism reflected through a 50 or 100 mm objective lens onto the cortical surface. […]

[6] abbreviates: 2.5 mM, 20 minutes of perfusion.

In the case of `NS(=O)(=O)c1cc(C(=O)O)c(NCc2ccco2)cc1Cl` [furosemide], in series [1] (setting [6]), the electrical afterdischarge activity result is on record as “blocked” and the stimulation-evoked optical changes result was “blocked”. Besides, in series [1] (45 minutes of perfusion with normal bathing medium), the reversibility after washout result is on record as “restoration of the initial response pattern”. In addition, the “epileptiform activity and intrinsic optical signal during electrical stimulation” value in series [1] (following treatment with furosemide) is “blocks the epileptiform activity and the intrinsic optical signal”.

Take `CC1(C)C(/C=C/C=C/C=C/C=C2\N(CCCCS(=O)(=O)O)c3ccc4ccccc4c3C2(C)C)=[N+](CCCCS(=O)(=O)[O-])c2ccc3ccccc3c21` [indocyanine green]: the “entry of dye into low grade tumor tissue vs normal brain tissue” value in series [2] is on record as “enters low grade tumor tissue faster than normal brain tissue”. In addition, in series [3], the “peak optical change, normal brain” value amounted to 7.8±2.3% and the “peak optical change, tumor” value was 13.1±3.9%. Besides, the “dye clearance, normal vs tumor region” value in series [3] (iv) is reported as “the normal tissue has cleared the dye, but dye is still retained in the tumor region”. In series [4], the “retention of dye in malignant tissue” value was “retained significantly longer in malignant tissue than in benign tumor tissue”. Besides, in series [5], the “duration of prolonged increase in optical signal in the tumor” value is over 2 min; the “dye uptake rise time, normal” value came out at 2.4 %/sec; the “onset of optical signal change after dye injection” value was 2 to 3 s; the “peak percentage difference change, tumor” value is recorded as 40.5±9.6%.
